≈ marks a conversion by molar mass, not a printed value.
Assays:
[1] = system: Mucor circinelloides; experiment: MIC broth microdilution (CLSI); assay type: cell-based; details: Mucor circinelloides 80-14-240-5007
Protocol: (§1) Antifungal susceptibility was determined by broth microdilution according to the CLSI guidelines described in M27-Ed4 ([16]).

[2] = system: Rhizopus oryzae; experiment: MIC broth microdilution (CLSI); assay type: cell-based; details: Rhizopus oryzae 04-14-364-1703
Protocol: as §1

[3] = system: Cryptococcus gattii; experiment: MIC broth microdilution (CLSI); assay type: cell-based; details: Cryptococcus gattii PNG27
Protocol: as §1

[4] = system: Fusarium oxysporum; experiment: MIC broth microdilution (CLSI); assay type: cell-based; details: Fusarium oxysporum 07-200-3012
Protocol: as §1

[5] = system: Lomentospora prolificans; experiment: MIC broth microdilution (CLSI); assay type: cell-based; details: Lomentospora prolificans 80-16-101-2445
Protocol: as §1

[6] = system: Candida parapsilosis; experiment: MIC broth microdilution (CLSI); assay type: cell-based; details: Candida parapsilosis ATCC 22018
Protocol: Antifungal susceptibility was determined by broth microdilution according to the CLSI guidelines described in M27-Ed4 ([16]). […] MFC was determined by back-plating drug-treated cultures from MIC broths onto SDA plates. The MFC was defined as the lowest concentration from which no colonies could be cultured.

[7] = system: Aspergillus niger; experiment: MIC broth microdilution (CLSI); assay type: cell-based; details: Aspergillus niger 111
Protocol: as §1

[8] = system: Aspergillus terreus; experiment: MIC broth microdilution (CLSI); assay type: cell-based; details: Aspergillus terreus 75-16-089-2500
Protocol: as §1

[9] = system: Aspergillus lentulus; experiment: MIC broth microdilution (CLSI); assay type: cell-based; details: Aspergillus lentulus DTO 341-G7
Protocol: as §1

[10] = system: Aspergillus felis; experiment: MIC broth microdilution (CLSI); assay type: cell-based; details: Aspergillus felis IHE87256683D6
Protocol: as §1

[11] = system: Aspergillus parafelis; experiment: MIC broth microdilution (CLSI); assay type: cell-based; details: Aspergillus parafelis DTO 341-F2
Protocol: as §1

[12] = system: Aspergillus frankstonensis; experiment: MIC broth microdilution (CLSI); assay type: cell-based; details: Aspergillus frankstonensis DTO 341-F3
Protocol: as §1

[13] = system: Epidermophyton floccosum; experiment: MIC broth microdilution (CLSI); assay type: cell-based; details: Epidermophyon floccosum R-113
Protocol: as §1

[14] = system: Paraphyton cookei; experiment: MIC broth microdilution (CLSI); assay type: cell-based; details: Paraphyton cookei R-639
Protocol: as §1

[15] = system: Cryptococcus gattii; experiment: checkerboard drug interaction (FICI, MICc); assay type: cell-based;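 also: simplified diagonal checkerboard screen pairing antifungals with FPPS inhibitors, FICI computed under the Loewe additivity model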
Protocol: (§2) Drug interactions between antifungals and FPPS inhibitors were investigated using a simplified checkerboard diagonal screening method ([45]). […] FICIs were determined according to the Loewe additivity model ([17]).

[16] = system: Cryptococcus tetragattii; experiment: checkerboard drug interaction (FICI, MICc); assay type: cell-based;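 also: simplified diagonal checkerboard screen pairing antifungals with FPPS inhibitors, with FICI calculated under the Loewe additivity model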
Protocol: as §2

[17] = system: Cryptococcus deneoformans; experiment: checkerboard drug interaction (FICI, MICc); assay type: cell-based;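 also: simplified diagonal checkerboard screen pairing antifungals with FPPS inhibitors, FICI calculated under the Loewe additivity model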
Protocol: as §2

[18] = system: Fusarium solani; experiment: checkerboard drug interaction (FICI, MICc); assay type: cell-based;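 also: simplified diagonal checkerboard screen pairing antifungals with FPPS inhibitors, FICI derived under the Loewe additivity model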
Protocol: as §2

[19] = system: Pichia kudriavzevii; experiment: checkerboard drug interaction (FICI, MICc); assay type: cell-based;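 also: antifungal plus FPPS inhibitor interactions tested in a simplified diagonal checkerboard screen, with FICI calculated under the Loewe additivity model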
Protocol: as §2

[20] = system: Candida tropicalis; experiment: checkerboard drug interaction (FICI, MICc); assay type: cell-based;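 also: simplified diagonal checkerboard screen of antifungal plus FPPS inhibitor combinations, with FICI computed by the Loewe additivity model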
Protocol: as §2

[21] = system: Candida dubliniensis; experiment: checkerboard drug interaction (FICI, MICc); assay type: cell-based;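 also: simplified diagonal checkerboard screen pairing antifungals with FPPS inhibitors, FICI calculated under the Loewe additivity model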
Protocol: as §2

[22] = system: Aspergillus niger; experiment: checkerboard drug interaction (FICI, MICc); assay type: cell-based;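 also: simplified diagonal checkerboard screen pairing antifungals with FPPS inhibitors, FICI calculated under the Loewe additivity model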
Protocol: as §2

[23] = system: Aspergillus terreus; experiment: checkerboard drug interaction (FICI, MICc); assay type: cell-based;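 also: simplified diagonal checkerboard screen pairing antifungals with FPPS inhibitors, FICI derived by the Loewe additivity model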
Protocol: as §2

[24] = system: Aspergillus lentulus; experiment: checkerboard drug interaction (FICI, MICc); assay type: cell-based;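 also: simplified diagonal checkerboard screen pairing antifungals with FPPS inhibitors, with the interaction index calculated under the Loewe additivity model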
Protocol: as §2

[25] = system: Microsporum canis; experiment: checkerboard drug interaction (FICI, MICc); assay type: cell-based;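 also: simplified diagonal checkerboard screen pairing antifungals with FPPS inhibitors, FICI calculated under the Loewe additivity model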
Protocol: as §2

[26] = system: Nannizzia nana; experiment: checkerboard drug interaction (FICI, MICc); assay type: cell-based
Protocol: as §2

[27] = system: Trichophyton tonsurans; experiment: checkerboard drug interaction (FICI, MICc); assay type: cell-based;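 also: simplified diagonal checkerboard screen combining antifungals with FPPS inhibitors, with FICI calculated under the Loewe additivity model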
Protocol: as §2

[28] = system: Trichophyton soudanense; experiment: checkerboard drug interaction (FICI, MICc); assay type: cell-based;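 also: simplified diagonal checkerboard screen pairing antifungals with FPPS inhibitors, FICI computed under the Loewe additivity model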
Protocol: as §2

[29] = system: Fusarium solani; experiment: MIC broth microdilution (CLSI); details: Fusarium solani 04-16-056-1862
Protocol: as §1

[30] = system: Trichophyton tonsurans; experiment: MIC broth microdilution (CLSI); details: Trichophyton tonsurans R-168
Protocol: as §1

[31] = system: Lomentospora prolificans; experiment: checkerboard drug interaction (FICI, MICc)
Protocol: as §2

[32] = system: Aspergillus frankstonensis; experiment: checkerboard drug interaction (FICI, MICc);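 also: simplified diagonal checkerboard screen pairing antifungals with FPPS inhibitors, FICI calculated using the Loewe additivity model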
Protocol: as §2

[33] = system: Epidermophyton floccosum; experiment: checkerboard drug interaction (FICI, MICc)
Protocol: as §2

[34] = system: Nannizzia gypsea; experiment: checkerboard drug interaction (FICI, MICc);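 also: simplified diagonal checkerboard screen pairing antifungals with FPPS inhibitors, FICI derived using the Loewe additivity model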
Protocol: as §2

C[C@@H]1[C@H](O)[C@@H](C)/C=C/C=C/C=C/C=C/C=C/C=C/C=C/[C@H](O[C@@H]2O[C@H](C)[C@@H](O)[C@H](N)[C@@H]2O)C[C@@H]2O[C@](O)(C[C@@H](O)C[C@@H](O)[C@H](O)CC[C@@H](O)C[C@@H](O)CC(=O)O[C@H]1C)C[C@H](O)[C@H]2C(=O)O [AMB, amphotericin B]
MIC / MEC [1]: 0.25 µg/mL (≈ 0.271 µM) | MIC / MEC [2]: 0.13 µg/mL (≈ 0.141 µM) | MIC / MEC [3]: 0.25 µg/mL (≈ 0.271 µM) | MIC / MEC [4]: 1 µg/mL (≈ 1.08 µM) | MIC / MEC [5]: 16 µg/mL (≈ 17.3 µM) | MIC / MEC [6]: 0.5 µg/mL (≈ 0.541 µM) | MIC / MEC [7]: 0.13 µg/mL (≈ 0.141 µM) | MIC / MEC [8]: 1 µg/mL (≈ 1.08 µM) | MIC / MEC [9]: 4 µg/mL (≈ 4.33 µM) | MIC / MEC [10]: 4 µg/mL (≈ 4.33 µM) | MIC / MEC [11]: 4 µg/mL (≈ 4.33 µM) | MIC / MEC [12]: 2 µg/mL (≈ 2.16 µM) | MIC / MEC [13]: 0.5 µg/mL (≈ 0.541 µM) | MIC / MEC [14]: 1 µg/mL (≈ 1.08 µM) | antifungal MICc ([15]; in combination with 10-ZOL): 0.125 | antifungal MICc ([15]; in combination with ZOL): 0.25 | antifungal MICc ([16]; in combination with 10-ZOL): 0.25 | antifungal MICc ([16]; in combination with ZOL): 0.125 | antifungal MICc ([17]; in combination with 10-ZOL): 0.125 | antifungal MICc ([17]; in combination with ZOL): 0.125 | antifungal MICc ([18]; in combination with 10-ZOL): 0.25 | antifungal MICc ([18]; in combination with ZOL): 0.25 | antifungal MICc ([19]; in combination with 10-ZOL): 0.25 | antifungal MICc ([19]; in combination with ZOL): 0.25 | antifungal MICc ([20]; in combination with 10-ZOL): 0.5 | antifungal MICc ([20]; in combination with ZOL): 1 | antifungal MICc ([21]; in combination with 10-ZOL): 0.25 | antifungal MICc ([21]; in combination with ZOL): 0.25 | antifungal MICc ([22]; in combination with 10-ZOL): 0.25 | antifungal MICc ([22]; in combination with ZOL): 0.125 | antifungal MICc ([23]; in combination with 10-ZOL): 0.25 | antifungal MICc ([23]; in combination with ZOL): 0.5 | antifungal MICc ([24]; in combination with 10-ZOL): 1 | antifungal MICc ([24]; in combination with ZOL): 2 | antifungal MICc ([25]; in combination with 10-ZOL): 1 | antifungal MICc ([25]; in combination with ZOL): 0.5 | antifungal MICc ([26]; in combination with 10-ZOL): 1 | antifungal MICc ([26]; in combination with ZOL): 0.25 | antifungal MICc ([27]; in combination with 10-ZOL): 0.25 | antifungal MICc ([27]; in combination with ZOL): 0.25 | antifungal MICc ([28]; in combination with 10-ZOL): 0.25 | antifungal MICc ([28]; in combination with ZOL): 0.5 | MIC / MEC [29]: 0.5 µg/mL (≈ 0.541 µM) | MIC / MEC [30]: 0.13 µg/mL (≈ 0.141 µM) | antifungal MICc ([31]; in combination with 10-ZOL): 4 | antifungal MICc ([31]; in combination with ZOL): 4 | antifungal MICc ([32]; in combination with 10-ZOL): 1 | antifungal MICc ([32]; in combination with ZOL): 2 | antifungal MICc ([33]; in combination with 10-ZOL): 0.5 | antifungal MICc ([33]; in combination with ZOL): 0.25 | antifungal MICc ([34]; in combination with 10-ZOL): 0.5 | antifungal MICc ([34]; in combination with ZOL): 0.25

CC(=O)N1CCN(c2ccc(OCC3COC(Cn4ccnc4)(c4ccc(Cl)cc4Cl)O3)cc2)CC1 (centres unmarked) [KET, ketoconazole]
MIC / MEC [1]: 16 µg/mL (≈ 30.1 µM) | MIC / MEC [2]: >16 µg/mL | MIC / MEC [3]: 0.5 µg/mL (≈ 0.941 µM) | MIC / MEC [4]: 16 µg/mL (≈ 30.1 µM) | MIC / MEC [5]: 4 µg/mL (≈ 7.53 µM) | MIC / MEC [6]: 0.03 µg/mL (≈ 0.0565 µM) | MIC / MEC [7]: 8 µg/mL (≈ 15.1 µM) | MIC / MEC [8]: 2 µg/mL (≈ 3.76 µM) | MIC / MEC [9]: 16 µg/mL (≈ 30.1 µM) | MIC / MEC [10]: 16 µg/mL (≈ 30.1 µM) | MIC / MEC [11]: >16 µg/mL | MIC / MEC [12]: 8 µg/mL (≈ 15.1 µM) | MIC / MEC [13]: 2 µg/mL (≈ 3.76 µM) | MIC / MEC [14]: 8 µg/mL (≈ 15.1 µM) | antifungal MICc ([15]; in combination with 10-ZOL): 0.125 | antifungal MICc ([15]; in combination with ZOL): 0.5 | antifungal MICc ([16]; in combination with 10-ZOL): 0.125 | antifungal MICc ([16]; in combination with ZOL): 0.25 | antifungal MICc ([17]; in combination with 10-ZOL): 0.063 | antifungal MICc ([17]; in combination with ZOL): 0.03125 | antifungal MICc ([18]; in combination with 10-ZOL): 4 | antifungal MICc ([18]; in combination with ZOL): 4 | antifungal MICc ([19]; in combination with 10-ZOL): 0.25 | antifungal MICc ([19]; in combination with ZOL): 0.06 | antifungal MICc ([20]; in combination with 10-ZOL): 4 | antifungal MICc ([20]; in combination with ZOL): 0.5 | antifungal MICc ([21]; in combination with 10-ZOL): 0.006 | antifungal MICc ([21]; in combination with ZOL): 0.005 | antifungal MICc ([22]; in combination with 10-ZOL): 2 | antifungal MICc ([22]; in combination with ZOL): 4 | antifungal MICc ([23]; in combination with 10-ZOL): 2 | antifungal MICc ([23]; in combination with ZOL): 0.25 | antifungal MICc ([24]; in combination with 10-ZOL): 4 | antifungal MICc ([24]; in combination with ZOL): 4 | antifungal MICc ([25]; in combination with 10-ZOL): 1 | antifungal MICc ([25]; in combination with ZOL): 4 | antifungal MICc ([26]; in combination with 10-ZOL): 0.5 | antifungal MICc ([26]; in combination with ZOL): 0.13 | antifungal MICc ([27]; in combination with 10-ZOL): 0.25 | antifungal MICc ([27]; in combination with ZOL): 0.5 | antifungal MICc ([28]; in combination with 10-ZOL): 0.5 | antifungal MICc ([28]; in combination with ZOL): 1 | MIC / MEC [29]: 16 µg/mL (≈ 30.1 µM) | MIC / MEC [30]: 4 µg/mL (≈ 7.53 µM) | antifungal MICc ([31]; in combination with 10-ZOL): 0.25 | antifungal MICc ([31]; in combination with ZOL): 2 | antifungal MICc ([32]; in combination with 10-ZOL): 1 | antifungal MICc ([32]; in combination with ZOL): 4 | antifungal MICc ([33]; in combination with 10-ZOL): 1 | antifungal MICc ([33]; in combination with ZOL): 0.5 | antifungal MICc ([34]; in combination with 10-ZOL): 2 | antifungal MICc ([34]; in combination with ZOL): 1
